According to PMC9693575, “Isopropyl Amino Acid Esters Ionic Liquids as Vehicles for Non-Steroidal Anti-Inflammatory Drugs in Potential Topical Drug Delivery Systems with Antimicrobial Activity” (International Journal of Molecular Sciences, 2022):

What was measured:
[1] = tested on: Staphylococcus epidermidis; experiment: Disc diffusion antimicrobial susceptibility test, Staphylococcus epidermidis; type: cell-based; design: key to Inhibition diameter: -: no growth of the organism; conditions: for zone of inhibition at 600000 µg/mL: solution transferred to disc 600 mg cm^−3; for zone of inhibition at 800000 µg/mL: solution transferred to disc 800 mg cm^−3
Experimental: (§1) The plates were incubated for 24 h at 37 °C.

[2] = pKa / pKB by potentiometric acid-base titration and formation constant log(KS); conditions: calculated from pKA of acid and pKB of base
Experimental: Determination of formation constant pKs
Zabrze, Poland). For the measurement of pKA acids, 0.1 M NaOH was used. In order to
ester hydrochloride, HCl aqueous solution, was added in an amount that allowed reach-
After that, an acid-base titration was made out by adding dropwise 5 mM

[3] = n-octanol-water partition coefficient (logP), shake flask method; type: physicochemical; conditions: n-octanol-water, shake flask; read-out: LogP
Escherichia coli = experiment: Disc diffusion antimicrobial susceptibility test, Escherichia coli; type: cell-based; design: key to Inhibition diameter: -: no growth of the organism; conditions: for zone of inhibition at 200000 µg/mL: solution transferred to disc 200 mg cm^−3; for zone of inhibition at 400000 µg/mL: solution transferred to disc 400 mg cm^−3; for zone of inhibition at 600000 µg/mL: solution transferred to disc 600 mg cm^−3
Experimental: as §1

Micrococcus Luteus = experiment: Disc diffusion antimicrobial susceptibility test, Micrococcus luteus; type: cell-based; design: key to Inhibition diameter: -: no growth of the organism; conditions: for zone of inhibition at 600000 µg/mL: solution transferred to disc 600 mg cm^−3; for zone of inhibition at 800000 µg/mL: solution transferred to disc 800 mg cm^−3
[4] = Solubility in water and phosphate buffers; conditions: for Solubility in Water, as active substance: deionized water, 25 °C; for Solubility in Water, as active substance / Solubility in Phosphate Buffer pH = 5.4, as active substance / Solubility in Phosphate Buffer pH = 7.4, as active substance: AS = unmodified acid; for Solubility in Phosphate Buffer pH = 5.4, as active substance: pH 5.4, 25 °C; for Solubility in Phosphate Buffer pH = 7.4, as active substance: pH 7.4, 25 °C
Excerpt: This study aims to compare the influence of amino acid structure on the physicochemical properties of NSAID salts with the isopropyl ester of amino acids.

[5] = Thermogravimetric analysis (thermal stability); conditions: air atmosphere, 10 °C min−1; for TDTGmax, maximum decomposition temperature: DTG; for TTGonset, the onset of the thermal degradation: TG
Method in brief: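 Samples of 5–8 mg heated in Al2O3 crucibles under air (25 cm3 min−1) with nitrogen flow (10 cm3 min−1). Start of thermal degradation taken as the onset of the TG curve in the first decomposition phase.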

[6] = Solubility in organic solvents (modified Vogel's method); conditions: 25 °C
[7] = Staphylococcus epidermidis, 24 h, read-out: Inhibition diameter
[8] = solution transferred to disc 25 mg cm^−3
[9] = solution transferred to disc 50 mg cm^−3
[10] = solution transferred to disc 100 mg cm^−3
[11] = solution transferred to disc 200 mg cm^−3
[12] = solution transferred to disc 400 mg cm^−3
[13] = Escherichia coli, 24 h, read-out: Inhibition diameter
[14] = Micrococcus luteus, 24 h, read-out: Inhibition diameter

Row | SMILES | zone of inhibition at 600000 µg/mL [1, 7] [mm] | zone of inhibition at 800000 µg/mL [1, 7] [mm] | Inhibition diameter [1, 8] | Inhibition diameter [1, 9] | Inhibition diameter [1, 10] | Log(KS) formation constant [2] | logP [3] | zone of inhibition at 200000 µg/mL (Escherichia coli; [13]) [mm] | zone of inhibition at 400000 µg/mL (Escherichia coli; [13]) [mm] | zone of inhibition at 600000 µg/mL (Escherichia coli; [13]) [mm] | Inhibition diameter (Escherichia coli; [8]) | Inhibition diameter (Escherichia coli; [9]) | zone of inhibition at 600000 µg/mL (Micrococcus Luteus; [14]) [mm] | zone of inhibition at 800000 µg/mL (Micrococcus Luteus; [14]) [mm] | Inhibition diameter (Micrococcus Luteus; [8]) | Inhibition diameter (Micrococcus Luteus; [9]) | Solubility in Water, as active substance [4] [gAS dm^−3] | Solubility in Phosphate Buffer pH = 5.4, as active substance [4] [gAS dm^−3] | solubility thermodynamic ([4]; pH 5.4, aqueous buffer) [mg/mL] | Solubility in Phosphate Buffer pH = 7.4, as active substance [4] [gAS dm^−3] | further results
1 | CC[C@H](C)[C@H](N)C(=O)OC(C)C.O=C(O)c1ccccc1O [[L-IleOiPr][SA], L-isoleucine isopropyl ester salicylate] | 7.3 ± 0.4 | 10.5 ± 0.3 | - | - | - | 7.25 | 1.6 ± 0.034 | 6.2 ± 0.1 | 7.3 ± 0.3 | 13.7 ± 0.7 | - | - | 10.8 ± 0.5 | 12.4 ± 0.4 | - | - | 11.793 ± 0.422 | 8.581 ± 0.015 | 19.281 ± 0.015 | 13.149 ± 0.041 | Inhibition diameter [1, 11]: -; Inhibition diameter [1, 12]: -; Inhibition diameter (Escherichia coli; [10]): -; Inhibition diameter (Micrococcus Luteus; [10]): -; Inhibition diameter (Micrococcus Luteus; [11]): -; Inhibition diameter (Micrococcus Luteus; [12]): -; solubility thermodynamic ([4]; pH 7.4, aqueous buffer): 29.55 ± 0.041 mg/mL; solubility thermodynamic ([4]; water): 26.5 ± 0.422 mg/mL; TDTGmax, maximum decomposition temperature [5]: 202.4 °C; TTGonset, the onset of the thermal degradation [5]: 144.2 °C; Solubility in Chloroform (39.1) [6]: ○ (soluble >100 mg cm^−3); Solubility in DMSO (45.1) [6]: ○ (soluble >100 mg cm^−3); Solubility in Dichloromethane (40.7) [6]: ○ (soluble >100 mg cm^−3); Solubility in Diethyl Ether (34.5) [6]: ○ (soluble >100 mg cm^−3); Solubility in Ethanol (59.1) [6]: ○ (soluble >100 mg cm^−3); Solubility in Ethyl Acetate (38.1) [6]: ○ (soluble >100 mg cm^−3); Solubility in Hexane (31.0) [6]: ● (insoluble <33 mg cm^−3); Solubility in Toluene (33.9) [6]: ○ (soluble >100 mg cm^−3)
2 | CSCC[C@H](N)C(=O)OC(C)C.O=C(O)c1ccccc1O [[L-MetOiPr][SA], L-methionine isopropyl ester salicylate] | 7.5 ± 0.2 | 9.2 ± 0.5 | - | - | - | 7.00 | 1.78 ± 0.035 | 14.4 ± 0.8 | 16.4 ± 0.3 | 18.8 ± 0.4 | - | - | 8.1 ± 0.9 | 10.5 ± 1 | - | - | 6.749 ± 0.533 | 4.437 ± 0.007 | 10.55 ± 0.007 | 7.586 ± 0.046 | zone of inhibition at 200000 µg/mL ([1]; Staphylococcus epidermidis, 24 h, solution transferred to disc 200 mg cm^−3, read-out: Inhibition diameter): 6.6 ± 0.2 mm; zone of inhibition at 400000 µg/mL ([1]; Staphylococcus epidermidis, 24 h, solution transferred to disc 400 mg cm^−3, read-out: Inhibition diameter): 7.1 ± 0.1 mm; zone of inhibition at 100000 µg/mL (Escherichia coli; Escherichia coli, 24 h, solution transferred to disc 100 mg cm^−3, read-out: Inhibition diameter): 7.8 ± 0.2 mm; zone of inhibition at 100000 µg/mL (Micrococcus Luteus; Micrococcus luteus, 24 h, solution transferred to disc 100 mg cm^−3, read-out: Inhibition diameter): 6.1 ± 0.1 mm; zone of inhibition at 200000 µg/mL (Micrococcus Luteus; Micrococcus luteus, 24 h, solution transferred to disc 200 mg cm^−3, read-out: Inhibition diameter): 6.3 ± 0.1 mm; zone of inhibition at 400000 µg/mL (Micrococcus Luteus; Micrococcus luteus, 24 h, solution transferred to disc 400 mg cm^−3, read-out: Inhibition diameter): 7.3 ± 0.4 mm; solubility thermodynamic ([4]; pH 7.4, aqueous buffer): 18.04 ± 0.046 mg/mL; solubility thermodynamic ([4]; water): 16 ± 0.533 mg/mL; TDTGmax, maximum decomposition temperature [5]: 205.0 °C; TTGonset, the onset of the thermal degradation [5]: 161.1 °C; Solubility in Chloroform (39.1) [6]: ○ (soluble >100 mg cm^−3); Solubility in DMSO (45.1) [6]: ○ (soluble >100 mg cm^−3); Solubility in Dichloromethane (40.7) [6]: ○ (soluble >100 mg cm^−3); Solubility in Diethyl Ether (34.5) [6]: ○ (soluble >100 mg cm^−3); Solubility in Ethanol (59.1) [6]: ○ (soluble >100 mg cm^−3); Solubility in Ethyl Acetate (38.1) [6]: ○ (soluble >100 mg cm^−3); Solubility in Hexane (31.0) [6]: ● (insoluble <33 mg cm^−3); Solubility in Toluene (33.9) [6]: ○ (soluble >100 mg cm^−3)
